Results from paper PMC8062851, “2-Methoxyestradiol and its derivatives inhibit store-operated Ca^2+ entry in T cells: Identification of a new and potent inhibitor” (Biochimica et Biophysica Acta. Molecular Cell Research, 2021).
pIC50: −log10 of the molar value. Entries after “also recorded” stand apart in the source; their conditions may differ. Like-named read-outs stand apart in the source and are kept apart here.

What was measured:
SOCE in Jurkat T cells = test: Inhibition during activated SOCE (thapsigargin or anti-CD3 OKT3, 1 mM extracellular Ca2+) in Jurkat T cells; type: cell-based, human; conditions: for pIC50: Homo sapiens, Jurkat, 1 mM extracellular Ca2+
Method: Jurkat T-lymphocytes, primary human CD4^+ T cells and H1299 cells were pelleted at 450 ×g for 5 min, rat TMBP at 300 ×g for 8 min at room temperature and were resuspended in 1 ml of either standard JMP medium (Jurkat, H1299 and human CD4^+ T cells) or standard DMEM based medium containing 10% fetal bovine serum (FBS) (v/v) (TMBP cells). Resting TMBP cells (day 5–7 after re-stimulation) after the second to fifth re-stimulation were thawed from liquid nitrogen 12 to 40 h prior to Fura2-loading. After pre-incubation for 5 min at 37 °C, cells were incubated with 4 μM Fura2-AM for 15 min at 37 °C. After addition of the dye, cells were kept in the dark. Afterwards, cells and the dye were diluted by addition of 4 ml standard medium and incubated for another 15 min. Cells were washed twice in Ca^2+ buffer (140 mM NaCl, 5 mM KCl, 1 mM MgSO4, 1 mM CaCl2, 1 mM NaH2PO4, 20 mM HEPES, 5.5 mM glucose; pH 7.4 (NaOH), sterile filtered) and were diluted to a concentration of 2*10^6 cells/ml. Subsequently, cells were kept at room temperature for 20 min for de-esterification before the start of the first measurement.
10^6 Jurkat T-lymphocytes, H1299 cells, TMBP cells or 4*10^6 primary human CD4^+ T cells were added into a 10 × 10 mm quartz glass cuvette (Hellma Analytics, Germany) that was placed into a fluorescence spectrophotometer (F-2710, Hitachi, Japan). In experiments using a Ca^2+ free/Ca^2+ re-addition protocol, cells were pelleted as described for Fura2 loading and Ca^2+ buffer was exchanged by 1 ml nominal Ca^2+ free buffer (140 mM NaCl, 5 mM KCl, 1 mM MgSO4, 1 mM NaH2PO4, 20 mM HEPES, 5.5 mM glucose; pH 7.4 (NaOH), sterile filtered) immediately before starting the measurement. The measurement was controlled by FL Solutions (Version 4.1, Hitachi High-Technologies Corporation). Fura2 was alternatively excited every 2 s at 340 ± 5 nm and 380 ± 5 nm, each 400 ms apart. Fluorescence intensity was measured at an emission wavelength of 495 ± 5 nm for both excitation wavelengths.
Finally, every measurement was calibrated using 0.1% (v/v) Triton X-100 to obtain a maximal ratio and 4 mM EGTA and 30 mM Tris to obtain a minimal ratio. […]
Besides the Ca^2+ free/Ca^2+ re-addition protocol, we also characterized the effect of STX564 in cells during activated SOCE in the presence of thapsigargin (TG, Fig. 2A,B) or upon stimulation via their TCR/CD3 complex (Fig. 2C). […]. […] Similarly, in Fig. 2C this effect of a partial or full recovery of SOCE was also observed, a few minutes after STX564 addition.

IP3 receptors = test: IP3-evoked Ca2+ release in permeabilized Jurkat T cells; type: cell-based, human; conditions: 2 μM IP3
Method: 3 ∗ 10^7 Jurkat T-lymphocytes per measurement were centrifuged at 450 ×g for 5 min at room temperature. The pellet was rinsed twice, each time using 10 ml permeabilization buffer 1 (120 mM KCl, 10 mM NaCl, 1.2 mM MgCl2, 0.533 mM CaCl2, 1 mM EGTA and 10 mM HEPES, pH 7.2 (KOH), sterile filtered). Subsequently, the pellet was resuspended in 2 ml permeabilization buffer 1 containing 80 μg/ml saponin (Fluka) and the cells were incubated for 10 min at 37 °C. Subsequently, the cells were centrifuged at 450 ×g for 5 min at room temperature and the cell pellet was washed once in 10 ml permeabilization buffer 2 (120 mM KCl, 10 mM NaCl, 1.2 mM MgCl2 and 10 mM HEPES, pH 7.2 (KOH), sterile filtered). Finally, the cells were taken up in 1 ml permeabilization buffer 2, placed into a cuvette and measured at the fluorescence spectrophotometer. Before the start of the measurement, 0.5 μl of 1 mM Fura2 free acid (dissolved in pure water, final concentration: 0.5 μM), 5 μl of 5 mg/ml creatinkinase (dissolved in permeabilization buffer 2, final concentration: 25 μg/ml, 20 U/ml, Roche) and 10 μl of 2 M creatin phosphate (dissolved in permeabilization buffer 2, final concentration: 20 mM, Calbiochem) were added. Fura2 was used to measure the Ca^2+ concentration and creatinkinase and creatin phosphate were used as ATP-regenerating system. The measurement was controlled by FL Solutions (Version 4.1, Hitachi High-Technologies Corporation). Fura2 was alternatively excited every 2 s at 340 ± 5 nm and 380 ± 5 nm, each 400 ms apart. Fluorescence intensity was measured at an emission wavelength of 495 ± 5 nm for both excitation wavelengths. […] Ca^2+ concentrations were calculated according to Grynkiewicz et al. as described earlier in Section 2.4.
As a quantitative read-out for inhibition of IP3 receptors, the peak [Ca^2+] after IP3 addition was subtracted from the mean [Ca^2+] between 25 and 75 s before IP3 addition (dPeak). […] The rate constant K of the fitted data was used as a quantitative read-out for SERCA pump activity and its inhibition.

With `CCc1cc2c(cc1OS(N)(=O)=O)CC[C@@H]1[C@@H]2CC[C@]2(C)[C@@H](CC#N)CC[C@@H]12` [STX564, 2-ethyl-3-sulfamoyloxy-17β-cyanomethylestra-1,3,5(10)-triene] the pIC50 (SOCE in Jurkat T cells; read-out: IC50 of SOCE inhibition during active SOCE, Jurkat T cells stimulated by 1 μM thapsigargin (TG)) was 5.52, the pIC50 (SOCE in Jurkat T cells; read-out: IC50 of SOCE inhibition during active SOCE, Jurkat T cells stimulated by 1 μg/ml αCD3 (OKT3)) was 5.70 and the “extent of inhibition when added during activated SOCE” value (SOCE in Jurkat T cells; Jurkat T cells, TG or TCR/CD3 stimulation) was “only partial inhibition”. For the same molecule, the “effect on IP3-evoked Ca2+ release” value (IP3 receptors) was “Neither STX564 nor Synta66 affected IP3-evoked Ca^2+ release significantly; also recorded: did not inhibit the Ca^2+ release by IP3”.
